Test results taken from the supplement of paper PMC11061612.

Legend:
Experiment in all cases: combination Emax (second highest fraction inhibited in the dose matrix, 72 h); higher = more inhibition; extreme values may be limits of the assay
[1] = system: COR-L95 (Small Cell Lung Carcinoma)
Summary of the method: (§1)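 Cell lines grown in DMEM/F12 or RPMI with 10% FBS were plated in 1536-well plates and held 24 hours at 37°C, 5% CO2 before 72 hours of exposure to two-drug dose matrices, with DMSO typically at 0.2%. CellTiter-Glo 2.0 luminescence gave viability, which was converted to inhibition. Vehicle wells were set to 0 and blank wells to 1. Combination Emax is the second-highest inhibition in the matrix, and Bliss excess is the observed combination effect minus the expected EA + EB − EA·EB, where EA and EB are the single-agent effects.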

[2] = system: SK-N-FI (Neuroblastoma)
Summary of the method: as §1

[3] = system: DOV13 (Ovarian Carcinoma)
Summary of the method: as §1

[4] = system: KARPAS-1106P (B-Cell Non-Hodgkin's Lymphoma)
Summary of the method: as §1

[5] = system: SW1990 (Pancreatic Carcinoma)
Summary of the method: as §1

[6] = system: NCI-H1299 (Non-Small Cell Lung Carcinoma)
Summary of the method: as §1

[7] = system: HT-29 (Colorectal Carcinoma)
Summary of the method: as §1

[8] = system: DB (B-Cell Non-Hodgkin's Lymphoma)
Summary of the method: as §1

[9] = system: TE-5 (Esophageal Squamous Cell Carcinoma)
Summary of the method: as §1

[10] = system: ES7 (Ewing's Sarcoma)
Summary of the method: as §1

[11] = system: NCI-H211 (Small Cell Lung Carcinoma)
Summary of the method: as §1

[12] = system: MDA-MB-231 (Breast Carcinoma)
Summary of the method: as §1

[13] = system: DSH1 (Bladder Carcinoma)
Summary of the method: as §1

[14] = system: U-266 (Plasma Cell Myeloma)
Summary of the method: as §1

[15] = system: SW1783 (Low Grade Glioma)
Summary of the method: as §1

[16] = system: KATOIII (Gastric Carcinoma)
Summary of the method: as §1

[17] = system: MDA-MB-157 (Breast Carcinoma)
Summary of the method: as §1

[18] = system: OCI-AML2 (Acute Myeloid Leukemia)
Summary of the method: as §1

[19] = system: IHH-4 (Thyroid Gland Carcinoma)
Summary of the method: as §1

[20] = system: KARPAS-620 (Plasma Cell Myeloma)
Summary of the method: as §1

SMILES | combination Emax [1] | combination Emax [2] | combination Emax [3] | combination Emax [4] | combination Emax [5] | combination Emax [6] | combination Emax [7] | combination Emax [8] | combination Emax [9] | combination Emax [10] | combination Emax [11] | combination Emax [12] | combination Emax [13] | combination Emax [14] | combination Emax [15] | combination Emax [16] | combination Emax [17] | combination Emax [18] | combination Emax [19] | combination Emax [20]
C=CCn1c(=O)c2cnc(Nc3ccc(N4CCN(C)CC4)cc3)nc2n1-c1cccc(C(C)(C)O)n1 [AZD1775] + Nc1ccn([C@@H]2O[C@H](CO)[C@@H](O)C2(F)F)c(=O)n1 [Gemcitabine] (first compound max 1 µM, partner max 0.3 µM) | 0.411 | 0.616 | 0.952 | 0.94 | 0.384 | 0.818 | 0.884 | 0.952 | 0.568 | 0.983 | 0.998 | 0.78 | 0.923 | 0.765 | 0.684 | 0.506 | 0.917 | 1 | 1 | 0.548
C[C@@H](Nc1cc(F)cc(F)c1)c1cc(C(=O)N(C)C)cc2c(=O)cc(N3CCOCC3)oc12 [AZD8186] + CC(=O)c1c(C)c2cnc(Nc3ccc(N4CCNCC4)cn3)nc2n(C2CCCC2)c1=O [Palbociclib] (first compound max 10 µM, 7x7, partner max 10 µM) | 0.273 | 0.43 | 0.484 | 0.791 | 0.267 | 0.497 | 0.562 | 0.601 | 0.394 | 0.724 | 0.754 | 0.49 | 0.471 | 0.155 | 0.617 | 0.356 | 0.333 | 0.834 | 0.426 | 0.775
O=C(c1cc(Cc2n[nH]c(=O)c3ccccc23)ccc1F)N1CCN(C(=O)C2CC2)CC1 [Olaparib] + CC1(C)CCC(CN2CCN(c3ccc(C(=O)NS(=O)(=O)c4ccc(NCC5CCOCC5)c([N+](=O)[O-])c4)c(Oc4cnc5[nH]ccc5c4)c3)CC2)=C(c2ccc(Cl)cc2)C1 [Venetoclax] (first compound max 10 µM, 7x7, partner max 1 µM) | 0.846 | 0.0529 | 0.158 | 0.402 | 0.179 | 0.0838 | 0.115 | 0.849 | 0.0752 | 0.95 | 0.99 | 0.239 | 0.272 | 0.248 | 0.0873 | 0.412 | 0.165 | 0.99 | 0.169 | 0.872
C[C@@H](Oc1cc(-c2cnn(C3CCNCC3)c2)cnc1N)c1c(Cl)ccc(F)c1Cl [Crizotinib] + Cn1cnc2c(F)c(Nc3ccc(Br)cc3Cl)c(C(=O)NOCCO)cc21 [Selumetinib] (first compound max 10 µM, 7x7, partner max 10 µM) | 0.345 | 0.809 | 0.647 | 0.953 | 0.158 | 0.574 | 0.98 | 0.751 | 0.186 | 0.818 | 0.943 | 0.725 | 0.229 | 0.624 | 0.194 | 0.588 | 0.243 | 1 | 0.758 | 0.941
Cc1cc2ncnn2cc1Nc1ncc2c(n1)n(C1CCOCC1)c(=O)n2C [AZD7648] + COc1cc([C@@H]2c3cc4c(cc3[C@@H](O[C@@H]3O[C@@H]5CO[C@@H](C)O[C@H]5[C@H](O)[C@H]3O)[C@H]3COC(=O)[C@H]23)OCO4)cc(OC)c1O [Etoposide] (first compound max 10 µM, 7x7, partner max 10 µM) | 0.551 | 0.368 | 0.923 | 0.781 | 0.337 | 0.649 | 0.711 | 0.907 | 0.668 | 0.977 | 0.968 | 0.842 | 0.844 | 0.581 | 0.706 | 0.368 | 0.855 | 1 | 0.956 | 0.786
N#Cc1cnc(Nc2cc(NC[C@H]3CNCCO3)c(C(F)(F)F)cn2)cn1 [SRA737] + CCc1c2c(nc3ccc(O)cc13)-c1cc3c(c(=O)n1C2)COC(=O)[C@]3(O)CC [SN-38] (first compound max 10 µM, 7x7, partner max 0.3 µM) | 0.572 | 0.606 | 0.994 | 0.902 | 0.519 | 0.559 | 0.903 | 0.988 | 0.851 | 1 | 0.987 | 0.908 | 0.95 | 0.576 | 0.857 | 0.543 | 0.955 | 1 | 0.98 | 0.658
Cc1nc(-c2cn3c(n2)-c2ccc(-c4cnn(C(C)(C)C(N)=O)c4)cc2OCC3)n(C(C)C)n1 [Taselisib] + O=C(Nc1ccc2[nH]nc(-c3ccncc3)c2c1)[C@@H]1CCN(CC(=O)N2CCN(c3ccc(-c4ncccn4)cc3)CC2)C1 [SCH772984] (first compound max 10 µM, 7x7, partner max 5 µM) | 0.238 | 0.877 | 0.599 | 0.78 | 0.655 | 0.629 | 0.965 | 0.449 | 0.822 | 0.726 | 0.55 | 0.834 | 0.977 | 0.787 | 0.643 | 0.583 | 0.418 | 1 | 0.73 | 0.969
Cc1c2c(nn1C)CSCc1cc(n(C)n1)CSc1cc(c3ccccc3c1)OCCCc1c(C(=O)O)n(C)c3c-2c(Cl)ccc13 [AZD5991] + CS(=O)(=O)CCNCc1ccc(-c2ccc3ncnc(Nc4ccc(OCc5cccc(F)c5)c(Cl)c4)c3c2)o1 [Lapatinib] (first compound max 1 µM, 7x7, partner max 10 µM) | 0.177 | 0.562 | 0.185 | 0.893 | 0.295 | 0.301 | 0.783 | 1 | 0.308 | 0.737 | 0.979 | 0.263 | 0.991 | 0.845 | 0.165 | 0.415 | 0.883 | 0.978 | 0.278 | 1
O=C(c1cc(Cc2n[nH]c(=O)c3ccccc23)ccc1F)N1CCN(C(=O)C2CC2)CC1 [Olaparib] + CN(CC[C@H](CSC1=CC=CC=C1)NC2=C(C=C(C=C2)S(=O)(=O)NC(=O)C3=CC=C(C=C3)N4CCC(CC4)[C@H](C5=CC=CC=C5C6=CC=C(C=C6)Cl)O)S(=O)(=O)C(F)(F)F)CCO [AZD4320] (first compound max 10 µM, 7x7, partner max 1 µM) | 1 | 0.144 | 0.86 | 0.498 | 0.328 | 0.114 | 0.104 | 0.923 | 0.238 | 0.969 | 1 | 0.668 | 0.512 | 0.631 | 0.289 | 0.37 | 0.216 | 1 | 0.206 | 1
CS(=O)(=O)CCNCc1ccc(-c2ccc3ncnc(Nc4ccc(OCc5cccc(F)c5)c(Cl)c4)c3c2)o1 [Lapatinib] + Cn1cnc2c(F)c(Nc3ccc(Br)cc3Cl)c(C(=O)NOCCO)cc21 [Selumetinib] (first compound max 10 µM, 7x7, partner max 10 µM) | 0.207 | 0.582 | 0.357 | 0.617 | 0.465 | 0.338 | 0.958 | 0.63 | 0.369 | 0.559 | 0.876 | 0.631 | 0.802 | 0.621 | 0.216 | 0.523 | 0.262 | 1 | 0.563 | 0.72
C=CCn1c(=O)c2cnc(Nc3ccc(N4CCN(C)CC4)cc3)nc2n1-c1cccc(C(C)(C)O)n1 [AZD1775] + CCc1c2c(nc3ccc(O)cc13)-c1cc3c(c(=O)n1C2)COC(=O)[C@]3(O)CC [SN-38] (first compound max 1 µM, partner max 0.3 µM) | 0.542 | 0.586 | 1 | 0.924 | 0.542 | 0.751 | 0.929 | 0.985 | 0.875 | 0.997 | 0.989 | 0.916 | 0.999 | 0.715 | 0.825 | 0.431 | 0.967 | 1 | 0.975 | 0.546
Cc1c2c(nn1C)CSCc1cc(n(C)n1)CSc1cc(c3ccccc3c1)OCCCc1c(C(=O)O)n(C)c3c-2c(Cl)ccc13 [AZD5991] + Nc1ccn([C@@H]2O[C@H](CO)[C@@H](O)C2(F)F)c(=O)n1 [Gemcitabine] (first compound max 1 µM, 7x7, partner max 0.3 µM) | 0.407 | 0.457 | 0.889 | 0.981 | 0.353 | 0.527 | 0.6 | 1 | 0.75 | 0.982 | 1 | 0.587 | 1 | 0.944 | 0.673 | 0.49 | 0.878 | 1 | 1 | 1
